For one series, the target named is T1, CYP2A6 (Homo sapiens, UniProt P11509).
T1 sequence (P11509 1-494): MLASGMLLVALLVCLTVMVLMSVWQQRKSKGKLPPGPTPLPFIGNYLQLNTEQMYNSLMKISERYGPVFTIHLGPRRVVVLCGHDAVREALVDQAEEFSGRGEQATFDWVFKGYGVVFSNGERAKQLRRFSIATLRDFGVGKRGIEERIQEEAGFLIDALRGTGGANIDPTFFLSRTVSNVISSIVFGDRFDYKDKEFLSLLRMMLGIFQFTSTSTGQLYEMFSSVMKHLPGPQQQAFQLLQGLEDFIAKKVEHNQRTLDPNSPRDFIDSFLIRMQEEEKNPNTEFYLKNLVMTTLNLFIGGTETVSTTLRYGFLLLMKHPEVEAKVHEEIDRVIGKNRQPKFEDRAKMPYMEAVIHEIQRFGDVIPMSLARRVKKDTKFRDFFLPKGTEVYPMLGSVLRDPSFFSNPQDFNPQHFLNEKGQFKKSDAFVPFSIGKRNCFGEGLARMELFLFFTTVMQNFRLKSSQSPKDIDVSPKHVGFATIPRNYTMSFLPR
Briefly: CYP inhibition in liver microsomes (coumarin). The protocol:
(§1) A liver microsome working solution (20 mg/mL) contained potassium phosphate buffer (0.1 M, pH 7.4), hepatic microsomes and marker substrate solution, which phenacetin, diclofenic acid, S-mephenytoinwer, dextromethorphan, midazolam, coumarin and chlorzoxazone used as substrates for […], CYP2C9, CYP2C19, CYP2D6, CYP3A4/5, CYP2A6 and CYP2E1, respectively. In brief, 238.5 µL of liver microsome working solution was placed in a 1 mL EP tube. […] The reaction was started by injecting NADPH (1 mM), and the resulting mixture was incubated at 37 °C for 10 min. After centrifuging at 4000 rpm for 15 min, the supernatant was transferred and analyzed using LC-MS/MS to detect the corresponding metabolites. Each incubation was conducted in triplicate (n = 3).
An API 4000 LC/tandem mass spectrometry was used to analyze the concentration of metabolites of various chemical agents using a validated mode. An Atlantis T3 column (2.1 mm × 50 mm, 5 μm) was utilized, employing mobile phases consisting of a 0.1% formic acid solution (A) and a 0.1% acetonitrile formate solution (B). […] As for the detection of CYP 2E1 metabolite, the Flow composition was as follows: 0–0.30 min, 10% B; 0.30–1.30 min, 10–55% B; 1.30–1.50 min, 55–95% B; 1.50–2.00 min, 95% B; 2.00–2.01 min, 95–10% B; the low rate was 0.85 mL/min. ESI was conducted in positive ion mode. MRM was utilized to quantify each metabolite, detecting the following transitions: m/z 152.1/110 for acetaminophen, 312.1/230.0 for 4′-Hydroxydiclofenac, 235.0/150.0 for 4′-hydroxymephentoin, 258.2/199.1 for Dextrorphan, 342.1/203.0 for 1′-hydroxymidazolam, 161.1/133.1 for hydroxycoumarin, and 184.0/120.0 for 6-hydroxyclozoxadone.
Background: Liver microsomes are a subcellular fraction often used to study metabolism.

The target of the next series is CYP2E1 (Homo sapiens, UniProt P05181). Briefly: CYP inhibition in liver microsomes (chlorzoxazone). It is filed as in vitro ADME. As to conditions: CYP 2E1, marker substrate chlorzoxazone. The protocol: as §1
(§2) An API 4000 LC/tandem mass spectrometry was used to analyze the concentration of metabolites of various chemical agents using a validated mode. An Atlantis T3 column (2.1 mm × 50 mm, 5 μm) was utilized, employing mobile phases consisting of a 0.1% formic acid solution (A) and a 0.1% acetonitrile formate solution (B). […] MRM was utilized to quantify each metabolite, detecting the following transitions: m/z 152.1/110 for acetaminophen, 312.1/230.0 for 4′-Hydroxydiclofenac, 235.0/150.0 for 4′-hydroxymephentoin, 258.2/199.1 for Dextrorphan, 342.1/203.0 for 1′-hydroxymidazolam, 161.1/133.1 for hydroxycoumarin, and 184.0/120.0 for 6-hydroxyclozoxadone.

Another series has as its target CYP2C19 (Homo sapiens, UniProt P33261). Briefly: CYP inhibition in liver microsomes (S-mephenytoin). The settings on record: CYP 2C19, marker substrate S-mephenytoin. The format is in vitro ADME. The protocol: as §1, §2
Series [1] is described as follows: Stereoselective pharmacokinetics in rat kidney tissue. It is filed as in vivo, Sprague–Dawley rats. The settings on record: rat kidney, oral 40 mg/kg farrerol racemate; for Cmax / AUC(0–t) / AUC(0–∞): 40 mg/kg. The protocol: Forty-two rats were divided randomly into seven groups (6 rats per time point at 0.5, 1, 2, 4, 8, 12, and 24 h) and were orally administered farrerol racemate at a dose of 40 mg/kg. Rats from each group were euthanized, and kidney and liver tissues were subsequently obtained. After washing three times using 0.9% sodium chloride solution, the attached blood and fat tissues were removed. Afterward, 0.5 g of the precisely weighed liver and kidney tissues were added to 1 mL 0.9% sodium chloride solution and homogenized in an ice bath. Subsequently, 150 µL of supernatant was transferred into a 2.0 mL EP tube for pre-treatment, in the same way as the pretreatment of plasma samples (see Section 3.4.1).
Stereoselective chromatographic analysis of farrerol enantiomers was conducted utilizing an ACQUITY UPLC I-Class UPLC system (Waters, Milford, MA, USA), which is equipped with a quaternary pump and an autosampler. The chiral separation was carried out employing a Chiralpak OJ-RH column (250 mm × 4.6 mm, 5 μm), which was obtained from Daicel Chemical Industries (Shanghai, China). The mobile phase consisted of ACN-H2O (60:40, v/v), and the constant flow rate was 0.5 mL/min. The column temperature was set at 25 °C, and the injection volume was 10 μL.
Mass detection was conducted using a triple quadrupole mass spectrometer (Waters Co., USA) equipped with an electrospray ionization (ESI) source. The detection of enantiomers and internal standards (IS) was carried out in multiple reaction monitoring (MRM) mode utilizing negative ionization. The m/z 299→179 for enantiomers and m/z 267→252 for IS were selected as detecting ions for quantitation. The collision energies (CE) were established at 22 eV and 20 eV, respectively. The primary mass spectrometry (MS) parameters were configured as follows: capillary voltage was set to 3.5 kV, ion source temperature was maintained at 150 °C, desolvation gas flow rate was 800 L/h, and the cone voltage (CV) was adjusted to 1.3 V.
Pharmacokinetic analysis was conducted utilizing the Drug and Statistics (DAS) 2.0 software provided by the Chinese Pharmacological Society. To assess the differences in pharmacokinetic parameters, the IC50 values of the evaluated CYP enzymes and the permeability coefficients between the two farrerol enantiomers, paired sample t-tests and independent sample t-tests were performed. Statistical significance was defined as * p < 0.05 and ** p < 0.01. All results are presented as mean values ± standard deviation (SD).

The target in a further series is CYP2D6 (Homo sapiens, UniProt P10635). As to the kind of experiment: CYP inhibition in liver microsomes (dextromethorphan). It is filed as in vitro ADME. As to conditions: CYP 2D6, marker substrate dextromethorphan. The protocol:
as §1, §2

Each structure is given as a SMILES string. Like-named read-outs stand apart in the source and are kept apart here.

For orientation: IC50 means the midpoint of a concentration-inhibition curve. One may read the Cmax as the highest concentration seen after dosing. In general, Tmax refers to the time at which the peak concentration occurs.

CYP2E1, sequence (P05181 whole entry): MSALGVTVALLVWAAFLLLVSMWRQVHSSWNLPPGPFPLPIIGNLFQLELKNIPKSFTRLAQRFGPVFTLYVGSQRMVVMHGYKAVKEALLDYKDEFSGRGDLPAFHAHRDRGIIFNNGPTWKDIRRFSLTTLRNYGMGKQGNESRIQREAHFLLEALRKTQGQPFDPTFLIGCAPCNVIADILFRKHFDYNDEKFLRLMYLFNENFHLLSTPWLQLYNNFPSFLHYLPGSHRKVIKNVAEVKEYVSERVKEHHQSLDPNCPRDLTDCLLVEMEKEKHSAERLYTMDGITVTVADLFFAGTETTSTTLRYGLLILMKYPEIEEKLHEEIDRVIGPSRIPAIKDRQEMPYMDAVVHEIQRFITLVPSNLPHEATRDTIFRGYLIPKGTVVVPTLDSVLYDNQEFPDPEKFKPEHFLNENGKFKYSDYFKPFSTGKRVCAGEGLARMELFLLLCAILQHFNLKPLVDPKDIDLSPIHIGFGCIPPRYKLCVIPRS
CYP2D6, sequence (P10635 whole entry): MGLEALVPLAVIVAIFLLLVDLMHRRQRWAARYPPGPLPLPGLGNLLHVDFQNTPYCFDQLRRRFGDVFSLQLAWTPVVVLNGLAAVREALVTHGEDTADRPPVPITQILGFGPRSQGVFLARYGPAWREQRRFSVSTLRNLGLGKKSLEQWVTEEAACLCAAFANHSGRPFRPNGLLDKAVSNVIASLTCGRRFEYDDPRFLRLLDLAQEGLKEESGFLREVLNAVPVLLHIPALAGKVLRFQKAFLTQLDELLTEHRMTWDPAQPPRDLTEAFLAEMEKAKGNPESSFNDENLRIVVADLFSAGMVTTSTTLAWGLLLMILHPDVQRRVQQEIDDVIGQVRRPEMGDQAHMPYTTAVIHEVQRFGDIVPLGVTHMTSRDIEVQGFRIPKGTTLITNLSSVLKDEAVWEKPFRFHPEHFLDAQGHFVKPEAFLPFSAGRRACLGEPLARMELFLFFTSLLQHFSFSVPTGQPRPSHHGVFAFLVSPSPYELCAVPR
CYP2C19, sequence (P33261 whole entry): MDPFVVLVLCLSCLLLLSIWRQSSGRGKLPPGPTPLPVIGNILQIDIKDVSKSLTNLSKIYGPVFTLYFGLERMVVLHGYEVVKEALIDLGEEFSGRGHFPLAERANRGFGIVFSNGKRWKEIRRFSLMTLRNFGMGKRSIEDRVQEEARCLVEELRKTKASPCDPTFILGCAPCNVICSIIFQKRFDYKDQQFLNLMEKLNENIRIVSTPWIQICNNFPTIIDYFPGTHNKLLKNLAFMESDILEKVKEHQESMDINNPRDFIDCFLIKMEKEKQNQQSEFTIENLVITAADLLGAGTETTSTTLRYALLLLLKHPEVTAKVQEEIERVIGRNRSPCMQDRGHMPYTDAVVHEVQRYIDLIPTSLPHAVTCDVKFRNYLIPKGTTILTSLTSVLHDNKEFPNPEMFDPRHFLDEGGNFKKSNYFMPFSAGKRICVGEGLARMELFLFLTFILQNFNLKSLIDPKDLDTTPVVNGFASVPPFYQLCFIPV

Regarding `Cc1c(O)c(C)c2c(c1O)C(=O)CC(c1ccc(O)cc1)O2` (single isomer, unassigned; (+)) [(+)-farrerol, 2,3-dihydro-5,7-dihydroxy-2-(4-hydroxyphenyl)-6,8-dimethyl-4-benzopyrone], the IC50 at CYP2A6 is greater than 50 µM; against CYP2E1 it was greater than 50 µM; at CYP2C19, 1.61 µM; on CYP2D6, greater than 50 µM. Moreover, the Cmax in series [1] (Sprague-Dawley, rat, kidney, po, read-out: Cmax) was found to be 3020 ± 350 ng/g. For the same molecule, in series [1] (Sprague-Dawley, read-out: Tmax), the Tmax was 1 h. Besides, the “AUC(0–t)” value in series [1] came out at 23.93 ± 2.11 µg·h/g. In addition, the “AUC(0–∞)” value in series [1] is 25.70 ± 2.09 µg·h/g.

For `Cc1c(O)c(C)c2c(c1O)C(=O)CC(c1ccc(O)cc1)O2` (single isomer, unassigned; (-)) [(−)-farrerol, 2,3-dihydro-5,7-dihydroxy-2-(4-hydroxyphenyl)-6,8-dimethyl-4-benzopyrone], the IC50 on CYP2A6 (CYP 2A6, marker substrate coumarin, liver microsomes) is greater than 50 µM. This molecule also yielded an IC50 at CYP2E1 greater than 50 µM. Besides, the IC50 against CYP2C19 is 2.07 µM. In series [1], the “AUC0–24 of (−)-farrerol relative to (+)-farrerol” value is 1.20 times, the Tmax was found to be 1.00 h, the “AUC(0–t)” value was 28.89 ± 2.53 * µg/g*h and the “AUC(0–∞)” value is 30.31 ± 2.47 * µg/g*h. Also, the Cmax in series [1] is 4.18 ± 0.48 * µg/g. Also, the IC50 against CYP2D6 was greater than 50 µM.

These data come from PMC12073438, “Stereoselectivity of In Vivo Processes and Bioactivity of Farrerol Enantiomers” (Molecules, 2025).
